Laboratory results: ChEMBL document CHEMBL1130370, “Novel hydroxyphosphonate inhibitors of CD-45 tyrosine phosphatase” (Bioorg Med Chem Lett, 1997)

Columns and labels:
[1] = target: T1, Receptor-type tyrosine-protein phosphatase C (Homo sapiens) (UniProt P08575); assay: Inhibition of CD45 protein-tyrosine phosphatase of Jurkat cell membrane at 500 uM.; type: cell-based
T1 sequence (whole entry): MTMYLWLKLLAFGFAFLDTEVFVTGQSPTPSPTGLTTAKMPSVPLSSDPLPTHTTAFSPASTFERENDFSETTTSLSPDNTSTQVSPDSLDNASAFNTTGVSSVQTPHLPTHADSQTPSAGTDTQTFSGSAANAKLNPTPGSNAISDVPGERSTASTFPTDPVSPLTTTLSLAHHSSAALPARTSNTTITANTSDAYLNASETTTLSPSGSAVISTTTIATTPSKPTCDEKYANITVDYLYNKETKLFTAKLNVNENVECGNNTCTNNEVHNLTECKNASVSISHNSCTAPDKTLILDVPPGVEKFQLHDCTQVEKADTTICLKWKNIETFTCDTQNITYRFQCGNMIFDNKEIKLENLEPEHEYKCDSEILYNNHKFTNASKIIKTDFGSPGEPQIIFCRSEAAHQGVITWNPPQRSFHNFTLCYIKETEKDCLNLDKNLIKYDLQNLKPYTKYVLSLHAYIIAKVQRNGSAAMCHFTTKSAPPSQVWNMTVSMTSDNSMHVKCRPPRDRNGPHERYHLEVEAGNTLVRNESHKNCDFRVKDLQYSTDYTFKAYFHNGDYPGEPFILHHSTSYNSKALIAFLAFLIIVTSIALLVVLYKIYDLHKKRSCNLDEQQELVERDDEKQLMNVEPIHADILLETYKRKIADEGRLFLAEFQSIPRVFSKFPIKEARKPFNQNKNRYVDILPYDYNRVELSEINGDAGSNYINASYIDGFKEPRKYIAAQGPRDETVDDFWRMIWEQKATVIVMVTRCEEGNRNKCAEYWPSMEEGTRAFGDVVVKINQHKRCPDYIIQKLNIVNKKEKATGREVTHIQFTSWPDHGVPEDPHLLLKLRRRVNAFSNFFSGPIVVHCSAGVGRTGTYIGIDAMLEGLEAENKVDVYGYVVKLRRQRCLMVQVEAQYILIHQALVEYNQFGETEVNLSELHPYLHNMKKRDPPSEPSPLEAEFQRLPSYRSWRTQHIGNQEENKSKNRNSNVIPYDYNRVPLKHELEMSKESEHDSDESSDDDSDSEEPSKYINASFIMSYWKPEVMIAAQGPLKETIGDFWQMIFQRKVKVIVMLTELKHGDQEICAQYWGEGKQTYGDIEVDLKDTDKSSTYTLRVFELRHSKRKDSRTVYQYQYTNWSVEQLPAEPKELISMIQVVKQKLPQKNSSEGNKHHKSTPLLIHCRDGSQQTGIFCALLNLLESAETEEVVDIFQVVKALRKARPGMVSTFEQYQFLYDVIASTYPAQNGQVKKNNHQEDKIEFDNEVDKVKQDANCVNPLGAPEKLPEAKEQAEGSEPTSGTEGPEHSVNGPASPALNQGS

[2] = target: T2, Prostatic acid phosphatase (Homo sapiens, UniProt P15309); assay: Compound was tested for its inhibitory activity against human prostatic acid phosphatase
T2 sequence (P15309 whole entry): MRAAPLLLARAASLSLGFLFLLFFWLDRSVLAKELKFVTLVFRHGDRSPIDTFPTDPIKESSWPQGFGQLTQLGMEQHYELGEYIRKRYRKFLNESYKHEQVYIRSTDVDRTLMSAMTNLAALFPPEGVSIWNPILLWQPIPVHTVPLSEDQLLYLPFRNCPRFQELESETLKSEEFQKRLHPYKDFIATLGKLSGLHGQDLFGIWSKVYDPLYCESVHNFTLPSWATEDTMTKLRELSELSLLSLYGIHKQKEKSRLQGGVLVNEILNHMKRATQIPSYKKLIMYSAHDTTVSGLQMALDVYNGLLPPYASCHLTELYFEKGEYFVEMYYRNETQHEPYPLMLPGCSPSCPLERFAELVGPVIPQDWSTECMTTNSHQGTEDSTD

[3] = target: T1, Receptor-type tyrosine-protein phosphatase C (Homo sapiens); assay: Compound was tested for its inhibitory activity against CD45 protein-tyrosine phosphatase of Jurkat cell membrane at 250 uM concentration; type: cell-based
[4] = target: T1, Receptor-type tyrosine-protein phosphatase C (Homo sapiens); assay: Compound was tested for its inhibitory activity against CD45 protein-tyrosine phosphatase of Jurkat cell membrane at 1000 uM concentration; type: cell-based
[5] = target: T3, Receptor-type tyrosine-protein phosphatase C (Homo sapiens, UniProt P08575); assay: Tested for inhibitory activity against CD45 protein-tyrosine phosphatase of Jurkat cell membrane at 1000 uM; type: cell-based
T3 sequence (P08575 whole entry): T1 sequence (whole entry)

[6] = Compound was tested for its inhibitory activity against Osteoclastic acid phosphatase; parameters: species or system Homo sapiens

SMILES | inhibition [1] | further results
O=[N+]([O-])c1ccc(O)c(C(O)P(=O)(O)O)c1 (stereo unspecified) | 75% | 
O=[N+]([O-])c1cc(C(O)P(=O)(O)O)cs1 (stereo unspecified) | 93% | 
O=P(O)(O)C(NCc1ccccc1)c1cccc2ccccc12 (stereo unspecified) |  | IC50 [2]: 8.6 nM; inhibition [3]: 23%
Cc1cccc(C(O)P(=O)(O)O)c1 (stereo unspecified) | 27% | 
O=P(O)(O)C(O)c1ccncc1 (stereo unspecified) | 0% | 
O=P(O)(O)C(O)c1ccccc1 (stereo unspecified) |  | inhibition [4]: 39%
COc1ccc(C(O)P(=O)(O)O)cc1 (stereo unspecified) | 42% | 
O=[N+]([O-])c1ccc(SC2CCCCC2)c(C(O)P(=O)(O)O)c1 (stereo unspecified) | 99% | 
O=P(O)(O)C(O)c1cccc2ccccc12 (stereo unspecified) |  | inhibition [4]: 53%
O=P(O)(O)C(O)c1cccc(Cl)c1 (stereo unspecified) | 49% | 
O=[N+]([O-])c1cccc(CP(=O)(O)O)c1 | 17% | 
O=P(O)(O)C(O)c1ccc2ccccc2c1 (stereo unspecified) | 59% | 
O=P(O)(O)C(O)c1cccnc1 (stereo unspecified) | 13% | 
N#Cc1cccc(C(O)P(=O)(O)O)c1 (stereo unspecified) |  | inhibition [4]: 49%
O=[N+]([O-])c1ccc(C(O)P(=O)(O)O)cc1 (stereo unspecified) |  | IC50 [5]: 28 µM; inhibition [4]: 98%
O=[N+]([O-])c1cccc(C(O)P(=O)(O)O)c1 (stereo unspecified) |  | IC50 [5]: 10 µM; inhibition [4]: 93%
O=C(c1ccccc1)C(C(=O)c1ccccc1)(c1cccc2ccccc12)P(=O)(O)O | 8% | IC50 [6]: 1400 nM
O=P(O)(O)C(O)c1ccnc2ccccc12 (stereo unspecified) | 58% | 
Nc1cccc(C(O)P(=O)(O)O)c1 (stereo unspecified) | 23% | 
O=[N+]([O-])c1cc(C(O)P(=O)(O)O)ccc1O (stereo unspecified) |  | inhibition [4]: 8%
Cc1cccc(C(c2ccccc2)P(=O)(O)O)c1 (stereo unspecified) | 8% | 
CS(=O)(=O)c1ccc(C(O)P(=O)(O)O)cc1 (stereo unspecified) | 41% | 
O=[N+]([O-])c1ccc(Cl)c(C(O)P(=O)(O)O)c1 (stereo unspecified) | 81% | 
CC(O)(c1cccc([N+](=O)[O-])c1)P(=O)(O)O (stereo unspecified) |  | IC50 [5]: 58 µM; inhibition [4]: 97%
O=P(O)(O)C(O)c1cccc(O)c1 (stereo unspecified) | 0% | 
O=P(O)(O)C(O)c1ccccn1 (stereo unspecified) | 2% | 
